Values after ≈ are worked out from the molar mass of the structure shown.
Test system: ADP-induced aggregation of human platelets
Type: cell-based
Conditions: Table 1; human platelet rich plasma; ADP 0.5 mcg/mL; read-out: Inhibition of Human Platelet Aggregation IC50 vs. ADP

IC50 [µg/mL]	Structure (SMILES)
11.9 (≈ 29.1 µM)	O=C(O)CCCCCCCCN1C(=O)C(c2ccccc2)N(c2ccccc2)C1=O (centres unmarked) [Example 2, 2,5-dioxo-3,4-diphenyl-1-imidazolidinenonanoic acid]
32 (≈ 75.7 µM)	COC(=O)CCCCCCCCN1C(=O)C(c2ccccc2)N(c2ccccc2)C1=O (centres unmarked) [Example 1, methyl 2,5-dioxo-3,4-diphenyl-1-imidazolidinenonanoate]

Source: patent US4970225A, “Imidazolidine carboxylic acids and esters as blood platelet aggregation inhibitors” (Bristol-Myers Squibb Company, priority 1990, dated 1990)
